Test results from patent publication US20250017889A1, “INHIBITORS OF P1B-TYPE ATPASES” (THE CURATORS OF THE UNIVERSITY OF MISSOURI, priority 2021, published 2025).

What was measured:
[1] = system: GFP alone; experiment: Microscale thermophoresis (MST), GFP alone as negative control; assay type: binding
Excerpt: Coordinating residues D935 and E798 are predicted to bind copper during transport.

[2] = system: tyrosinase activity in B16 melanoma cells; experiment: Tyrosinase activity in wild type B16 melanoma cells (L-DOPA to DOPAchrome), proxy for ATP7A inhibition; assay type: cell-based
Excerpt: Tyrosinase is a cuproenzyme involved in melanogenesis that receives copper via ATP7A in the secretory pathway. […] Thus, reductions in tyrosinase activity in wild type B16 cells can be used as a proxy for inhibition of ATP7A. […]

[3] = Cytotoxicity in B16 cells by MTT and crystal violet assays; assay type: cell-based; conditions: mouse
Excerpt: This is consistent with lower affinity of MKV1 for ATP7A (FIG. 6E).

[4] = target: T1, human ATP7A (hATP7A) (Homo sapiens, UniProt Q04656); experiment: Tyrosinase activation in B16 ATP7A^KO cells transfected with human ATP7A; assay type: cell-based; conditions: 10 μM, 24 h, ATP7A^KO melanoma cells
T1 construct: expressed in transfected cells; host or cells: B16 melanoma ATP7A^KO cells (mouse), transient transfection
T1 sequence (Q04656 1-1500): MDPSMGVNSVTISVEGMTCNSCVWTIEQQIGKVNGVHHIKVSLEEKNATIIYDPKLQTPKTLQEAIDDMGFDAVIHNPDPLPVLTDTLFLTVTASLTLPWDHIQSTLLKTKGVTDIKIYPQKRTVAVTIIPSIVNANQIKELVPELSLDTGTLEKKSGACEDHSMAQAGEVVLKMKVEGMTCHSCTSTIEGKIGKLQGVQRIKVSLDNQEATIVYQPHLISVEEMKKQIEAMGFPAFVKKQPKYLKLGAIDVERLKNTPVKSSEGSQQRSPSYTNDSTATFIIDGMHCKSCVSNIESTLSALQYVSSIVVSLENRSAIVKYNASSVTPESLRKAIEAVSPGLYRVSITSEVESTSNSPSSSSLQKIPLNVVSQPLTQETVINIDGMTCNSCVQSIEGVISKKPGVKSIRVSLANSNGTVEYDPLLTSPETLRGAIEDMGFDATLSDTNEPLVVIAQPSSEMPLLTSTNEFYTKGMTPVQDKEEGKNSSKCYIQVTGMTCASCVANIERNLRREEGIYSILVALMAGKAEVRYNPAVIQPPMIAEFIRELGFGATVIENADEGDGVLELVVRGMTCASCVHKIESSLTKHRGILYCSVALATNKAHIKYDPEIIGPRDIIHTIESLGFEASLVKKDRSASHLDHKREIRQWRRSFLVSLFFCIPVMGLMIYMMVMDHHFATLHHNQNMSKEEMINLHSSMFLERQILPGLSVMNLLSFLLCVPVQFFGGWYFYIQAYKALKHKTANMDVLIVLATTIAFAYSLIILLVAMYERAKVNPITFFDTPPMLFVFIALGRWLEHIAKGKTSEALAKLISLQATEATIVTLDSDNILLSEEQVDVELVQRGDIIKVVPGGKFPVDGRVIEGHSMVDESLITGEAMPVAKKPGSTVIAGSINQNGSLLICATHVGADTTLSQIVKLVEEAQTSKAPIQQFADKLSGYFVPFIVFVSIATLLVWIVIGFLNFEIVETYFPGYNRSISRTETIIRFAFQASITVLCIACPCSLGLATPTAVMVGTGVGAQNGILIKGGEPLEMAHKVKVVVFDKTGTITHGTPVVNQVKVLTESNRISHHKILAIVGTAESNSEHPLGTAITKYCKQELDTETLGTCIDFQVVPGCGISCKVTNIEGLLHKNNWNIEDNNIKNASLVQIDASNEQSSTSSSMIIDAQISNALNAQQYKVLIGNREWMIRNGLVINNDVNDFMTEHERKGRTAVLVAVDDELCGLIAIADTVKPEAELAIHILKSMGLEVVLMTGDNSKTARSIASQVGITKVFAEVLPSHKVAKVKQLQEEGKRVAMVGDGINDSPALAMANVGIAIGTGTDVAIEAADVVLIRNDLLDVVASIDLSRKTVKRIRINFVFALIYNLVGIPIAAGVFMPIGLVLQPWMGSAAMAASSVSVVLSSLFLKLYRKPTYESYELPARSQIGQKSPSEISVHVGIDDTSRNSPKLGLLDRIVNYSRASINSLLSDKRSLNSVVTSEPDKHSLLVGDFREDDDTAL
Excerpt: Prior studies have shown that exogenously expressed ATP7B can activate tyrosinase in cells lacking ATP7A. For these studies, a B16 melanoma cell model was used in which tyrosinase activity can be detected by in situ oxidation of L-DOPA to DOPAchrome (10A). As shown earlier, B16 cells deleted for the ATP7A gene (ATP7A^KO) completely lack tyrosinase activity (10B). […] Quantification of tyrosinase activity in these cells is shown (10G). Data represent mean±SEM; ****p<0.0001 of three independent replicates.

[5] = system: 4T1 breast cancer cells and LLC lung cancer cells; experiment: In vitro scratch assay of cell motility (gap closure); assay type: cell-based; conditions: 10 μM
Excerpt: LOX activity is known to be important for the motility of cancer cells. In this assay, a gap (scratch) was created in a confluent monolayer of cells and closure of the gap in the presence or absence of MKV3 was monitored by video microscopy. […] Dashed lines indicate scratch starting points (12A and 12C). […] The requirement for ATP7A in cancer cell motility is consistent with its role in activation of lysyl oxidase enzymes.

[6] = system: wild type S. aureus (CopA and CopB); experiment: Growth of wild type methicillin-resistant Staphylococcus aureus; assay type: cell-based
Method: Methicillin-resistant Staphylococcus aureus (MRSA) is a human pathogen that expresses two Cu-transporting P1B-type ATPases, CopA and CopB, which are known to enhance the virulence of this bacterium. 19A illustrates CopA and CopB copper exporters at the plasma membrane of S. aureus. […] The growth of the ΔcopA/ΔcopB strain was inhibited by approximately 50% when copper alone (50 μM) was added to the culture medium.
Wild type MRSA expresses two copper-exporting P1B-type ATPases, CopA and CopB that are required for copper tolerance (FIG. 19A). […] The same experiment was performed using MRSA in which both CopA and CopB genes were deleted (ΔcopA/ΔcopB). Consistent with the known role of CopA and CopB in copper tolerance, the growth of the ΔcopA/ΔcopB strain was inhibited by approximately 50% when copper alone (50 μM) was added to the culture medium (FIG. 19C).

## N#CC(C(=O)Nc1cccc(C(F)(F)F)c1)C(=S)Nc1ccccc1Cl (stereo not shown) [MKV3]
[1]
  binding to GFP alone: not to GFP alone
[2]; 5 μM, 24 h, wild type B16 melanoma cells
  in situ tyrosinase activity: loss of tyrosinase activity
[2]; Mus musculus, B16 cells
  IC50: 2.96 ± 0.007 µM
[3]
  CC50: ~75 µM
[4]
  activation of tyrosinase activity by ATP7A: prevented activation of tyrosinase activity
[5]; 4T1 cells
  rate of gap closure: significantly reduced
[5]; LLC cells
  rate of gap closure: significantly reduced
[6]
  sensitivity of wild type S. aureus to silver: increases the sensitivity
[6]; MKV3 0.5 μM alone
  growth of wild type S. aureus: not affected
[6]; MKV3 0.5 μM and copper 50 μM in combination
  growth of wild type S. aureus: significant inhibition of growth
